# According to paper PMC11823594, “Durlobactam in combination with β-lactams to combat Mycobacterium abscessus” (Antimicrobial Agents and Chemotherapy, 2024):
# “Also recorded” adds a separate entry of the source. Read-outs that look alike come from different tables or passages of the source.
# Key:
# Mab ATCC 19977 = experiment: Static drug-concentration time-kill (SCTK) assay with CART analysis; assay type: cell-based, Mycobacterium abscessus; conditions: clinically achievable concentrations, over 10 days; AVI 4 mg/L; DUR 12 mg/L + SUL 7 mg/L
# LDT1 = LDT1 (Mycobacterium abscessus, UniProt B1MDC1); experiment: Mass spectrometry of covalent adduct formation; assay type: binding; conditions: protein:drug 1:20, 2 h; mass accuracy ±5 Da; (−) = no change
# Chain of LDT1 (B1MDC1 entry or part of it): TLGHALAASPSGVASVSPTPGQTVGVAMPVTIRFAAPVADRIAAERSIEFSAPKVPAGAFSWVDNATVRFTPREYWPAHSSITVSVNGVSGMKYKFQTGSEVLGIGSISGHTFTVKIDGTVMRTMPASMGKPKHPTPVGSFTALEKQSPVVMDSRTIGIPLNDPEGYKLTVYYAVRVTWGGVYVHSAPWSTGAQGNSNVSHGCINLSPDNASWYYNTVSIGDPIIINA
# Protocol: (§1) Truncated sequences of LDT1-5, DDC, PBP B, and PBP-lipo (Δ1–41) were generated by Celtek Biosciences and cloned into the pET28(a) + vector with a tobacco etch virus (TEV) protease cleavage site before the start codon. Clones were transformed into Escherichia coli BL21 (DE3) and grown to an OD600 of 0.6–0.8. […] Cell pellets were collected and stored at −20°C overnight, then resuspended in a buffer containing 50 mM Tris (pH 8.0), 400 mM sodium chloride, and 1 mM Tris (2-carboxyethyl) phosphine hydrochloride (TCEP), followed by sonication and centrifugation. The supernatant was purified using a His Prep FF 16/10 column (GE Healthcare) and eluted with 500 mM imidazole. Eluted protein was dialyzed overnight at 4°C in a buffer with 50 mM Tris (pH 8.0), 150 mM sodium chloride, and 0.5 mM TCEP in the presence of His-tagged TEV protease. To remove the His tag, the mixture was passed over the His Prep FF 16/10 column again.
# (§2) The purified proteins listed above were incubated at room temperature with β-lactams or BLIs at a molar ratio of 1:20 for 2 h. The reactions were then quenched with acetonitrile and diluted to 1 mL with 0.1% formic acid in water. Samples were analyzed using a quadrupole time-of-flight (Q-TOF) Waters Synapt-G2-Si electrospray ionization mass spectrometer (ESI-MS) and a Waters Acquity H class ultra-performance liquid chromatography (UPLC) system, equipped with a BEH C18 1.7 µm column (2.1 × 50 mm). The MS was tuned with the following settings: capillary voltage set at 3 kV, sampling cone at 35 V, source offset at 35, source temperature of 100°C, desolvation temperature of 500°C, cone gas flow rate at 100 L/h, desolvation gas flow rate at 800 L/h, and nebulizer set at 6.0. The mobile phases consisted of 0.1% formic acid in water and 0.1% formic acid in 100% acetonitrile, with gradient elution from 10% to 90% of […] over 11 min. The system’s mass accuracy was ±5 Da.
# LDT5 [1] = target: T1, LDT5 (Mycobacterium abscessus, UniProt B1MM58); experiment: Mass spectrometry of covalent adduct formation; assay type: binding; conditions: protein:drug 1:20, 2 h; mass accuracy ±5 Da; (−) = no change
# T1 sequence (B1MM58 entry or part of it): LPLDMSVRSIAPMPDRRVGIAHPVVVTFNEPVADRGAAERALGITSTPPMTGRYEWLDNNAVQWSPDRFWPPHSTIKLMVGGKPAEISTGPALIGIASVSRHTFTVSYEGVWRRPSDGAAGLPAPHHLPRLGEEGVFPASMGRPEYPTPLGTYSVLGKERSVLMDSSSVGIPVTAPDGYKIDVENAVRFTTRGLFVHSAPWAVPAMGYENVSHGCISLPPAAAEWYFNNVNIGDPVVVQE
# Protocol: as §1, §2
# BlaMab = BlaMab (Mycobacterium abscessus, UniProt B1MCI3); experiment: Ki,app for the β-lactamase; assay type: biochemical
# Chain of BlaMab (B1MCI3 entry or part of it): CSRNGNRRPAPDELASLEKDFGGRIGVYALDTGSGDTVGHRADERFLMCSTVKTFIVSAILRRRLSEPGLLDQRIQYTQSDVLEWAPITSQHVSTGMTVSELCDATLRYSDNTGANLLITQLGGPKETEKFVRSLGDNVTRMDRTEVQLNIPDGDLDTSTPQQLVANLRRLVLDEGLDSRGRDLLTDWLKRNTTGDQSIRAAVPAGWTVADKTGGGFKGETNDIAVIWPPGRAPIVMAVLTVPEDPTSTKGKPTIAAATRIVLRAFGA
# DDC [2] = target: T2, DDC (Mycobacteroides abscessus, UniProt B1MDJ1); experiment: Differential scanning fluorimetry thermal shift assay; assay type: binding; conditions: 2 h; read-out: ΔTm DDC (Tm = 35.5°C)
# T2 sequence (B1MDJ1 entry or part of it): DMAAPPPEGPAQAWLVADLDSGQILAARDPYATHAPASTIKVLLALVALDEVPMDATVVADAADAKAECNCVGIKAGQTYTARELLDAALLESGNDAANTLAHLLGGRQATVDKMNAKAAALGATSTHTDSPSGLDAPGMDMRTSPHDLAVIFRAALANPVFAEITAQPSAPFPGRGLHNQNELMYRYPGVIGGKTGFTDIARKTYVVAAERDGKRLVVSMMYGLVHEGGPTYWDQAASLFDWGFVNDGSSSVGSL
# Protocol: (§3) Each purified protein (2–4 µM) was incubated with or without β-lactams or BLIs at a molar ratio of 1:50 at room temperature for 2 h. Following incubation, SYPRO Orange dye (10× concentration; Fisher Scientific) was added. The samples were then brought to a final volume of 30 µL with PBS buffer and subjected to thermal cycling in a qPCR machine (Bio-Rad), with the temperature increasing from 25°C to 95°C at a rate of 1°C/min. Fluorescence changes were monitored with an excitation wavelength of 492 nm. The experiments were conducted at least in duplicate, and the melting temperature (Tm) was determined for each sample. The Tm values were then compared to those of the protein in the absence of β-lactams or BLIs to ascertain the change in melting temperature (ΔTm).
# PBP B = PBP B (Mycobacterium abscessus, UniProt B1MP31); experiment: as above; assay type: binding; conditions: 2 h; read-out: ΔTm PBPB (Tm = 31.6°C)
# Chain of PBP B (B1MP31 entry or part of it): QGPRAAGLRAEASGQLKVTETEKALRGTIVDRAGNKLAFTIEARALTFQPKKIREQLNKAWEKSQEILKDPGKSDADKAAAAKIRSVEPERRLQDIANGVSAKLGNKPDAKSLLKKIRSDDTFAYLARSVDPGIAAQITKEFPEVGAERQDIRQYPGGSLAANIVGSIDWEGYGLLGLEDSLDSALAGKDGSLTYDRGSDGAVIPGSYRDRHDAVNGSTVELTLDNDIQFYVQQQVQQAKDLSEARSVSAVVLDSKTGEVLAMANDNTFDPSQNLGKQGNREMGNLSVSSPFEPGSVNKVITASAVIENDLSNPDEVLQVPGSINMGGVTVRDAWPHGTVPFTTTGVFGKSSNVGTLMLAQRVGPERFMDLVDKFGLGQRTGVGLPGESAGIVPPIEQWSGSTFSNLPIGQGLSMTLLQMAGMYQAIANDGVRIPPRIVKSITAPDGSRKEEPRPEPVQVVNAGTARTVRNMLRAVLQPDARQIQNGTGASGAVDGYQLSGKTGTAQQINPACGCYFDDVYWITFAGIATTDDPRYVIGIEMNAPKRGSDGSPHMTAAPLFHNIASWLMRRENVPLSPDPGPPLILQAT
# Protocol: as §3
# LDT4 = LDT4 (Mycobacterium abscessus, UniProt B1MKW1); experiment: Mass spectrometry of covalent adduct formation; assay type: binding; conditions: protein:drug 1:20, 2 h; mass accuracy ±5 Da; (−) = no change
# Chain of LDT4 (B1MKW1 entry or part of it): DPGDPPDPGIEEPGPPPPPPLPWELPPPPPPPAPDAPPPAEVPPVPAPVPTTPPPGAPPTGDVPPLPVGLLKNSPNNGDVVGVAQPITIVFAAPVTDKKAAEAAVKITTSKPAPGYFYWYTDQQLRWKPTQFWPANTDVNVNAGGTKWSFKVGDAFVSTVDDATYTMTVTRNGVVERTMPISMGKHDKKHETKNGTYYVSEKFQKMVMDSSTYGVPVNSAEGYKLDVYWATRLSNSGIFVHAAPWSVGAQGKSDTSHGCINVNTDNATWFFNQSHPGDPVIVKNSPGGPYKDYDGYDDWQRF
# Protocol: Truncated sequences of LDT1-5, DDC, PBP B, and PBP-lipo (Δ1–41) were generated by Celtek Biosciences and cloned into the pET28(a) + vector with a tobacco etch virus (TEV) protease cleavage site before the start codon. Clones were transformed into Escherichia coli BL21 (DE3) and grown to an OD600 of 0.6–0.8. Protein expression was induced with 0.25 mM isopropyl β-d-1-thiogalactopyranoside (IPTG) and incubated for 18 h at 18°C. Cell pellets were collected and stored at −20°C overnight, then resuspended in a buffer containing 50 mM Tris (pH 8.0), 400 mM sodium chloride, and 1 mM Tris (2-carboxyethyl) phosphine hydrochloride (TCEP), followed by sonication and centrifugation. The supernatant was purified using a His Prep FF 16/10 column (GE Healthcare) and eluted with 500 mM imidazole. Eluted protein was dialyzed overnight at 4°C in a buffer with 50 mM Tris (pH 8.0), 150 mM sodium chloride, and 0.5 mM TCEP in the presence of His-tagged TEV protease. To remove the His tag, the mixture was passed over the His Prep FF 16/10 column again.
# as §2
# LDT5 [3] = target: T1, LDT5; experiment: Steady-state kinetics with nitrocefin (Ki,app); assay type: biochemical; conditions: in parentheses in Table 3
# Protocol: Steady-state kinetic studies were conducted using purified LDTs and PBPs (LDT1-5, PBP B, PBP-lipo, and DDC) as previously described ([20]). The assays were performed using a BioTek Synergy2 multimode reader in conjunction with Gen5 analysis software. […] To determine reaction velocities, a 0.25 cm path length was employed. The steady-state kinetic parameters (Vmax, kcat, and Km) were obtained by fitting the data to the Henri-Michaelis-Menten equation using a nonlinear least-squares fit in Origin 8.1 software (OriginLab, Northampton, MA). The reaction rate (v) at a given substrate concentration ([S]) was calculated according to the following equations: […]
# Changes in absorbance at 482 nm were measured over a period of 0–30 min for each concentration of β-lactams and BLIs. Data were linearized using a Dixon plot, plotting the inverse changes in absorbance (1/ΔA) against the concentrations of β-lactams and BLIs. The observed Ki,app was determined directly from the Dixon plot, and these values were corrected for substrate concentration and affinity for the LDT using the following equation:
# Ki,app=observed Ki,app/1+[NCF]/Km NCF
# [4] = human, in vivo; cited from earlier work
# DDC [5] = target: T2, DDC; experiment: Mass spectrometry of covalent adduct formation; assay type: binding; conditions: protein:drug 1:20, 2 h; mass accuracy ±5 Da; (−) = no change
# Protocol: as §1, §2
# [6] = read-out: Ki,app BlaMab (converted)
Compound,Bacterial killing (log10 reduction) in time-kill (Mab ATCC 19977),"Observed MW (+ change in mw), LDT1 (23,059) (LDT1)","Observed MW (+ change in mw), LDT5 (28,220) (LDT5 [1])","Ki (BlaMab; read-out: Ki,app BlaMab) [µM]",Ki (BlaMab; [6]) [µM],ΔTm (DDC [2]) [°C],ΔTm (PBP B) [°C],"Observed MW (+ change in mw), LDT4 (32,567) (LDT4)","Ratio of fCss,avg to Ki,app, LDT5 (LDT5 [3])",Total clearance after IV dosing [4] [L/h],"Observed MW (+ change in mw), DDC (26,788) (DDC [5])"
"CC1(C)S[C@@H]2[C@H](NC(=O)[C@H](N)c3ccc(O)cc3)C(=O)N2[C@H]1C(=O)O [Amoxicillin, amoxicillin]",no killing effect,"28,220 (−) Da","28,220 (−) Da",< 13.7,–,–,–,–,–,–,–
"NC(=O)[C@@H]1CC[C@@H]2CN1C(=O)N2OS(=O)(=O)O [Avibactam, avibactam]",no effect on bacterial growth inhibition or killing; also recorded: no effect,"23,325 (+265) Da","28,220 (−) Da",–,0.3,4.2,-0.2,–,–,–,–
"CO/N=C(\C(=O)N[C@@H]1C(=O)N2C(C(=O)O)=C(COC(N)=O)CS[C@H]12)c1ccco1 [Cefuroxime, cefuroxime]",–,"23,059 (−) Da",–,–,–,–,–,"32,567 (−) Da",7.5,9.0 to 16,–
"CC1=C[C@@H]2CN(C(=O)N2OS(=O)(=O)O)[C@@H]1C(N)=O [Durlobactam, durlobactam]",~ 2 log10 CFU/mL,"23,336 (+277) Da","28,496 (+276) Da",–,0.00397,0.4,-0.4,"32,841 (+276) Da",145,–,"27,066 (+276) Da"
"C[C@@H](O)[C@H]1C(=O)N2C(C(=O)O)=C(SCCN=CN)C[C@H]12 [Imipenem, imipenem]",–,–,–,–,17,–,–,–,0.4,–,–
"C[C@@H](O)[C@H]1C(=O)N2C(C(=O)O)=C(S[C@H]3CC[S@@+]([O-])C3)S[C@H]12 [Sulopenem, sulopenem]",–,–,"28,306 (+86) Da",–,–,10.4,1,"32,652 (+86) Da",1.5,–,"27,138 (+349) Da"
"C[C@@H](O)[C@H]1C(=O)N2C(C(=O)O)=C(SC3CN(C4=NCCS4)C3)[C@H](C)[C@H]12 [Tebipenem, tebipenem]",–,"23,443 (+384) Da","28,220 (−) Da",–,< 13,–,–,"32,951 (+384) Da",–,–,"27,173 (+385) Da"
